Data reported in the kinase profiling compilation of Christmann-Franck et al. (2016).

What was measured:
Experiment in all cases: radiometric filter-binding kinase assay, Kinase HotSpot
Details in all cases: compound 0.5 µM; ATP 10 µM
[1] = biological target: ABL1 (human) (UniProt P00519)
[2] = biological target: ACVR1B (human) (UniProt P36896)
[3] = biological target: AURKA (human) (UniProt O14965)
[4] = biological target: AURKC (human) (UniProt Q9UQB9)
[5] = biological target: AXL (human) (UniProt P30530)
[6] = biological target: CAMK2B (human) (UniProt Q13554)
[7] = biological target: CAMK2D (human) (UniProt Q13557)
[8] = biological target: CAMKK2 (human) (UniProt Q96RR4)
[9] = biological target: CDK2 CCNE1 (human) (UniProt P24941+P24864)
[10] = biological target: CHEK1 (human) (UniProt O14757)
[11] = biological target: CLK1 (human) (UniProt P49759)
[12] = biological target: CSNK2A1 (human) (UniProt P68400)
[13] = biological target: DAPK2 (human) (UniProt Q9UIK4)
[14] = biological target: DYRK1A (human) (UniProt Q13627)
[15] = biological target: EGFR (human) (UniProt P00533)
[16] = biological target: EPHA4 (human) (UniProt P54764)
[17] = biological target: EPHA5 (human) (UniProt P54756)
[18] = biological target: EPHB4 (human) (UniProt P54760)
[19] = biological target: ERBB2 (human) (UniProt P04626)
[20] = biological target: FGFR2 (human) (UniProt P21802)
[21] = biological target: FRK (human) (UniProt P42685)
[22] = biological target: JAK1 JH1 catalytic (human) (UniProt P23458)
[23] = biological target: JAK2 JH1 JH2 (human) (UniProt O60674)
[24] = biological target: KIT (human) (UniProt P10721)
[25] = biological target: LCK (human) (UniProt P06239)
[26] = biological target: LIMK1 (human) (UniProt P53667)
[27] = biological target: MAP3K14 (human) (UniProt Q99558)
[28] = biological target: MAP4K2 (human) (UniProt Q12851)
[29] = biological target: MAPK14 (human) (UniProt Q16539)
[30] = biological target: MAPKAPK2 (human) (UniProt P49137)
[31] = biological target: MKNK2 (human) (UniProt Q9HBH9)
[32] = biological target: NEK2 (human) (UniProt P51955)
[33] = biological target: OXSR1 (human) (UniProt O95747)
[34] = biological target: PAK2 (human) (UniProt Q13177)
[35] = biological target: PASK (human) (UniProt Q96RG2)
[36] = biological target: PDGFRB (human) (UniProt P09619)
[37] = biological target: PLK1 (human) (UniProt P53350)
[38] = biological target: RET (human) (UniProt P07949)
[39] = biological target: ROCK1 (human) (UniProt Q13464)
[40] = biological target: SRPK1 (human) (UniProt Q96SB4)
[41] = biological target: TTK (human) (UniProt P33981)
[42] = biological target: TXK (human) (UniProt P42681)

FRK (human), sequence (P42685 whole entry, looked up): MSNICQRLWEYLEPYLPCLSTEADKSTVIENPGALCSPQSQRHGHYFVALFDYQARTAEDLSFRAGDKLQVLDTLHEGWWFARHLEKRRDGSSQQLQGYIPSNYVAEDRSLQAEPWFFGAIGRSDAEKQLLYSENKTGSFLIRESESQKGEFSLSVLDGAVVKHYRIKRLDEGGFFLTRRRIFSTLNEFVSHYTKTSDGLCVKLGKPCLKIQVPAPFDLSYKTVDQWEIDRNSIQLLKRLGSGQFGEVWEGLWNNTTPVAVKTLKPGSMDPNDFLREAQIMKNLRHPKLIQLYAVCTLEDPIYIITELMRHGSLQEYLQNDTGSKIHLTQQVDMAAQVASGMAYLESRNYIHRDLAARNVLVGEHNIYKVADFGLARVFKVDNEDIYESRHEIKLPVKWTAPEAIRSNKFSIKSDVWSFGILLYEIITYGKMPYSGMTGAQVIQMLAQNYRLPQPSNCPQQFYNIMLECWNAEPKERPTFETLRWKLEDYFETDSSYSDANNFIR
FGFR2 (human), sequence (P21802 whole entry, looked up): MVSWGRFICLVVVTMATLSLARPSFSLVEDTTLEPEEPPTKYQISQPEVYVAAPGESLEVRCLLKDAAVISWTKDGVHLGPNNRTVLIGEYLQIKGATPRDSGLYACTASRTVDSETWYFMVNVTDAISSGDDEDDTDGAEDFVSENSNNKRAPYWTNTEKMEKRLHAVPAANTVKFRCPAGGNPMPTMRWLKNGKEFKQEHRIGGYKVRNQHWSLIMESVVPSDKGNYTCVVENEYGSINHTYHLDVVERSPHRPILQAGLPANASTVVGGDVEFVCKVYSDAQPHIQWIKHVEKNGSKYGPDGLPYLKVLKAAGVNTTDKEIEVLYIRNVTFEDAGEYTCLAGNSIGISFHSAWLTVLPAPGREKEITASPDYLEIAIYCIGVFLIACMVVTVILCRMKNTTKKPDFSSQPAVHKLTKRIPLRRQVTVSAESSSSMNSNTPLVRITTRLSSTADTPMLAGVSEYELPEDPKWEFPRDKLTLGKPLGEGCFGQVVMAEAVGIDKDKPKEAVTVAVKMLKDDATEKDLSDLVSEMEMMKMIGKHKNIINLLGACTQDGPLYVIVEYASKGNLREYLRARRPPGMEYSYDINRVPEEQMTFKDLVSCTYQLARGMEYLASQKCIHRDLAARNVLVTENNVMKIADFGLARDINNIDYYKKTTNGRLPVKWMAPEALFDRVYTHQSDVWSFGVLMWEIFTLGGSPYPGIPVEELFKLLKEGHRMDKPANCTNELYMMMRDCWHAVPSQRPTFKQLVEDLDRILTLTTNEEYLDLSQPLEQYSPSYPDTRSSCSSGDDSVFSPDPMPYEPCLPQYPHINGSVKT
SRPK1 (human), sequence (Q96SB4 whole entry, looked up): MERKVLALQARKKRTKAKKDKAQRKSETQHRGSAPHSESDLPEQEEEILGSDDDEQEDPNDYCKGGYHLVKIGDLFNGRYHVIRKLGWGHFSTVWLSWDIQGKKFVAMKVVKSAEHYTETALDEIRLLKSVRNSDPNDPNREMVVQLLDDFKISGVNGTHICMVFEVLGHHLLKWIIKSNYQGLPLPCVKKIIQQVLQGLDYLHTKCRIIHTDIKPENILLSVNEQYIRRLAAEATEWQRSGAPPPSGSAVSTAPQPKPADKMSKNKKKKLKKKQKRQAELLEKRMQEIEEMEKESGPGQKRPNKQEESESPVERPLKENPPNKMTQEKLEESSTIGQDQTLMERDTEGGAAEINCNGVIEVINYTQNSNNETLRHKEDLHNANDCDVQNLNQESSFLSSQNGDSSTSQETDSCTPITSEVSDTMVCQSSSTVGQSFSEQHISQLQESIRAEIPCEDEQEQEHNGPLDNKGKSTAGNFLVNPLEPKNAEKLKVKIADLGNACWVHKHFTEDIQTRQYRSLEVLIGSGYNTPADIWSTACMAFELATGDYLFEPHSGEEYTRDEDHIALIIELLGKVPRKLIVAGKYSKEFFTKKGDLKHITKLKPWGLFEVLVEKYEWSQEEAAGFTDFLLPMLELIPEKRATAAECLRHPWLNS
CDK2 CCNE1 (human), sequence (P24864 whole entry, looked up, other chains not shown): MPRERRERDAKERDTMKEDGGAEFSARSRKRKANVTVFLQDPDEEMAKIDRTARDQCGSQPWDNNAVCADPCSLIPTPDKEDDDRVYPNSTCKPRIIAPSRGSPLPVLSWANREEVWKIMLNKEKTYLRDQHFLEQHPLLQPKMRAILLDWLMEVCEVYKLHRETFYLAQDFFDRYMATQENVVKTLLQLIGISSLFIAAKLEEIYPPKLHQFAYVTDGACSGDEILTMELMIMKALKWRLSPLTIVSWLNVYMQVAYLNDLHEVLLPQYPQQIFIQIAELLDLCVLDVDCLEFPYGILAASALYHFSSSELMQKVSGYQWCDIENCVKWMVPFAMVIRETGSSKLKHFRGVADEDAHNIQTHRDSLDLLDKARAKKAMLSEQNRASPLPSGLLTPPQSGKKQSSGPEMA
EGFR (human), sequence (P00533 whole entry, looked up): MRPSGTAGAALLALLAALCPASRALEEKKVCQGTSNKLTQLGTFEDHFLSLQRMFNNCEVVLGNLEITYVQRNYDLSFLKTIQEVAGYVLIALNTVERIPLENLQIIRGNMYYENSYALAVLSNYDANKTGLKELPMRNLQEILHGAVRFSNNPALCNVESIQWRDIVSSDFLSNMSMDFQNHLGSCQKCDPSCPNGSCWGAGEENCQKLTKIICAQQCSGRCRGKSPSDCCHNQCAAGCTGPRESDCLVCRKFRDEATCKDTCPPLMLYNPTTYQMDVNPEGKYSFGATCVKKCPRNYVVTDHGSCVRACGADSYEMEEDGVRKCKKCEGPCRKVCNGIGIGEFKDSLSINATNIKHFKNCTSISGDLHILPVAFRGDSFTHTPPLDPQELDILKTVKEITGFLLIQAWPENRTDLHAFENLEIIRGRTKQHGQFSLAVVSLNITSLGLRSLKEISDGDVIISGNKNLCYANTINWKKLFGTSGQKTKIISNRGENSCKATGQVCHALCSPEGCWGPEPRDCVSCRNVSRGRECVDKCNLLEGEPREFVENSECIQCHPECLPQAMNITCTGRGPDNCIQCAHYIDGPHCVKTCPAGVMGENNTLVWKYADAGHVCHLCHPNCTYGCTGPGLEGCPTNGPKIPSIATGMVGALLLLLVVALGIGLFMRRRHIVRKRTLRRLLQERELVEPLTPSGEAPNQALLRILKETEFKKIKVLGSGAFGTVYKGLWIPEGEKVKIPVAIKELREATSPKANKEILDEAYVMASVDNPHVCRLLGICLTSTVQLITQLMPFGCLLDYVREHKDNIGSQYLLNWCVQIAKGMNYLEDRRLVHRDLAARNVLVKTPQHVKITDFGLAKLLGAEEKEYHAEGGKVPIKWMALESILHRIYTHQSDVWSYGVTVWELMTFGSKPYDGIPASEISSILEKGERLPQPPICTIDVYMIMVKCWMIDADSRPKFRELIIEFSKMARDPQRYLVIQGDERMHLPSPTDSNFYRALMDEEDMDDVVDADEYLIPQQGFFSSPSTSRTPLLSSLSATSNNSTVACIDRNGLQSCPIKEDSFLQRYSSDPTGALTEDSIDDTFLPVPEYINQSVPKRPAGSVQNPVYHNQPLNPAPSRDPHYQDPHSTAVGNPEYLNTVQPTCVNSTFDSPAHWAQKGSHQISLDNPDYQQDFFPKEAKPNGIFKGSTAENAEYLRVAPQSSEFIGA
MKNK2 (human), sequence (Q9HBH9 whole entry, looked up): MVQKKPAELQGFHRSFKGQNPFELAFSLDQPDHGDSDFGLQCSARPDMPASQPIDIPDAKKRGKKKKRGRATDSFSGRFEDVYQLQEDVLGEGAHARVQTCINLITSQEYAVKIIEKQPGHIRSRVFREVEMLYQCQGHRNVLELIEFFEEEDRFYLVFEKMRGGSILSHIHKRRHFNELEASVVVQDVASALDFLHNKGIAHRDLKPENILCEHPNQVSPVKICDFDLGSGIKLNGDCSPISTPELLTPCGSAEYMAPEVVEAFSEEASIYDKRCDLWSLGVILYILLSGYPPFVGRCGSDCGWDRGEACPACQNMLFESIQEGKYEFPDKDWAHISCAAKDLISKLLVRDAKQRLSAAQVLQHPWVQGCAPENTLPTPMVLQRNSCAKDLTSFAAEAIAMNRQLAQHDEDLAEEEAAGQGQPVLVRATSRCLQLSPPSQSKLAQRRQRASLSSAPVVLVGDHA
PAK2 (human), sequence (Q13177 whole entry, looked up): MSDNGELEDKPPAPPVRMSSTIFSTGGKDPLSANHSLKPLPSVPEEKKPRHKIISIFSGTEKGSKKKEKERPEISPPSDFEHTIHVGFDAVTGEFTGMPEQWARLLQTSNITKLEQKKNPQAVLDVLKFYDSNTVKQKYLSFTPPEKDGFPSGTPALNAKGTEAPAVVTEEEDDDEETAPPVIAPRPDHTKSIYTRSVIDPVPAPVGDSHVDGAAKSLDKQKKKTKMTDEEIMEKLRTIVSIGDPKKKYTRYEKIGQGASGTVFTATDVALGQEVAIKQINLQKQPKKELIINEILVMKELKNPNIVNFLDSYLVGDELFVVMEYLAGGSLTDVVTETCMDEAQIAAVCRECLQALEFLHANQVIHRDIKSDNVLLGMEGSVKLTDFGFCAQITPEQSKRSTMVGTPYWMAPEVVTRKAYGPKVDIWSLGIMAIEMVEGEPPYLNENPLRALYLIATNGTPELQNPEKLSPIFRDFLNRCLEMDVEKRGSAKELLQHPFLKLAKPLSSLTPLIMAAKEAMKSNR
AURKC (human), sequence (Q9UQB9 whole entry, looked up): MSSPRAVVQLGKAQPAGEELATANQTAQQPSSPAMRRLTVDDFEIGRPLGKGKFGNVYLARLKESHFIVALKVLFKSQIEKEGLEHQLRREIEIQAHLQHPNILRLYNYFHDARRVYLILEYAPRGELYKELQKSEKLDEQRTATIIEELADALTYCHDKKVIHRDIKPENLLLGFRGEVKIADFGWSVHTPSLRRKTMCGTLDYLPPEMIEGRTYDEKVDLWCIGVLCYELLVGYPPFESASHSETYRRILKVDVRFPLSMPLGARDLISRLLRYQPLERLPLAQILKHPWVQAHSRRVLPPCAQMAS

Work on CN(C)CCCn1cc(C2=C(c3c[nH]c4ccccc34)C(=O)NC2=O)c2ccccc21 yielded a residual activity [1] of 103%, a residual activity [2] of 106% and a residual activity [3] of 108%. The residual activity [4] was 84.7%, the residual activity [5] was 100% and the residual activity [6] was 74.5%. For the same compound, the residual activity [7] was 38.7%, the residual activity [8] was 59.8% and the residual activity [9] was 80.4%. It also gave a residual activity [10] of 39.1%, a residual activity [11] of 60.3% and a residual activity [12] of 99.5%. For the same compound, the residual activity [13] was 105%, the residual activity [14] was 54.7% and the residual activity [15] was 94%. It also gave a residual activity [16] of 88.2%, a residual activity [17] of 92% and a residual activity [18] of 86.8%. The residual activity [19] was 96.5%, the residual activity [20] was 95.4% and the residual activity [21] was 92.3%. For the same compound, the residual activity [22] was 88.7%, the residual activity [23] was 93.9% and the residual activity [24] was 69.5%. The residual activity [25] was 91.8%, the residual activity [26] was 94.7% and the residual activity [27] was 110%. It also gave a residual activity [28] of 94.2%, a residual activity [29] of 90.7% and a residual activity [30] of 85.4%. It also gave a residual activity [31] of 85.3%, a residual activity [32] of 96.2% and a residual activity [33] of 97.4%. For the same compound, the residual activity [34] was 96.2%, the residual activity [35] was 67% and the residual activity [36] was 78.1%. It also gave a residual activity [37] of 101%, a residual activity [38] of 93.4% and a residual activity [39] of 92.3%. It also gave a residual activity [40] of 87%, a residual activity [41] of 98.2% and a residual activity [42] of 107%.
Compound CN(C)c1ccc(/C=C2\C(=O)Nc3ccccc32)cc1 has a residual activity [1] of 103%, a residual activity [2] of 93.4% and a residual activity [3] of 104%. The residual activity [4] was 91.1%, the residual activity [5] was 93.8% and the residual activity [6] was 108%. For the same compound, the residual activity [7] was 96.4%, the residual activity [8] was 100% and the residual activity [9] was 97.1%. The residual activity [10] was 98.2%, the residual activity [11] was 103% and the residual activity [12] was 89.7%. For the same compound, the residual activity [13] was 105%, the residual activity [14] was 103% and the residual activity [15] was 92.1%. It also gave a residual activity [16] of 95.2%, a residual activity [17] of 109% and a residual activity [18] of 97.4%. The residual activity [19] was 91%, the residual activity [20] was 98.2% and the residual activity [21] was 102%. It also gave a residual activity [22] of 105%, a residual activity [23] of 94.8% and a residual activity [24] of 45.6%. For the same compound, the residual activity [25] was 93%, the residual activity [26] was 97.7% and the residual activity [27] was 67.7%. It also gave a residual activity [28] of 109%, a residual activity [29] of 92.4% and a residual activity [30] of 106%. It also gave a residual activity [31] of 90.5%, a residual activity [32] of 98.4% and a residual activity [33] of 106%. The residual activity [34] was 102%, the residual activity [35] was 95% and the residual activity [36] was 85.8%. It also gave a residual activity [37] of 103%, a residual activity [38] of 78% and a residual activity [39] of 98.3%. It also gave a residual activity [40] of 95.4%, a residual activity [41] of 99.7% and a residual activity [42] of 96.1%.
